Biological target: T1, Human M4 (Homo sapiens, UniProt P08173)
T1 construct: expressed in transfected cells; host or cells: CHO-K1 (ATCC), co-transfected with chimeric G protein Gqi5
T1 sequence (P08173 1-479): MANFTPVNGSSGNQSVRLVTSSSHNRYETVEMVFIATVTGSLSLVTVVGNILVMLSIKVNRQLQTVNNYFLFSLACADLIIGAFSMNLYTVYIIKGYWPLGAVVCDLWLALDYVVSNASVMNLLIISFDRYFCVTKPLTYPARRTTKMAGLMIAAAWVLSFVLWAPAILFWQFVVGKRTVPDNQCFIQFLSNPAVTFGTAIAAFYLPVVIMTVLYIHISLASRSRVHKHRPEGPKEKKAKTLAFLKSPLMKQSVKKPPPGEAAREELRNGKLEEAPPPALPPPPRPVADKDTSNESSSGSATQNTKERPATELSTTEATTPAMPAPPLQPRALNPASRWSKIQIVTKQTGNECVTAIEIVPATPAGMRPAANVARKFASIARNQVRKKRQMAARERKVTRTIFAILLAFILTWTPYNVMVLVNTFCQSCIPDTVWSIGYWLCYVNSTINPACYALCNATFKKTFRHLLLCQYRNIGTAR
Assay: mAChR M4 cell-based functional assay (calcium flux, antagonism of EC80 acetylcholine response)
Conditions: M4/Gqi5/CHO-K1 cells; for remaining activity at 30 µM: CHO-K1, % ACh maximum at 30 μM, read-out: Human M4 Emin; for IC50: decrease of response elicited by EC80 acetylcholine
Method: Human or rat M4 cDNA, along with the chimeric G protein Gqi5, were transfected into Chinese hamster ovary (CHO-K1) cells purchased from the American Type Culture Collection using Lipofectamine2000. M4/Gqi5/CHO cells were grown in Ham's F-12 medium containing 10% heat-inactivated fetal bovine serum (FBS), 20 mM HEPES, 500 μg/mL G418 sulfate, and 200 μg/mL Hygromycin B.
For high throughput measurement of agonist-evoked increases in intracellular calcium, CHO-K1 cells stably expressing muscarinic receptors were plated in growth medium lacking G418 and hygromycin at 15,000 cells/20 μL/well in Greiner 384-well black-walled, tissue culture (TC)-treated, clear-bottom plates (VWR). Cells were incubated overnight at 37° C. and 5% CO2. The next day, cells were washed using an ELX 405 (BioTek) with assay buffer; the final volume was then aspirated to 20 μL. Next, 20 μL of a 2.3 μM stock of Fluo-4/acetoxymethyl ester (Invitrogen, Carlsbad, Calif.), prepared as a 2.3 mM stock in DMSO and mixed in a 1:1 ratio with 10% (w/v) Pluronic F-127 and diluted in assay buffer, was added to the wells and the cell plates were incubated for 50 min at 37° C. and 5% CO2. Dye was removed by washing with the ELX 405 and the final volume was aspirated to 20 μL. Compound master plates were formatted in a 10 point concentration-response curve (CRC) format (1:3 dilutions) in 100% DMSO with a starting concentration of 10 or 1 mM using a BRAVO liquid handler (Agilent). Test compound CRCs were then transferred to daughter plates (240 nL) using the Echo acoustic plate reformatter (Labcyte, Sunnyvale, Calif.) and then diluted into assay buffer (40 μL) to a 2× stock using a Thermo Fisher Combi (Thermo Fisher Scientific, Waltham, Mass.).
Calcium flux was measured using the Functional Drug Screening System (FDSS) 6000 or 7000 (Hamamatsu Corporation, Tokyo, Japan) as an increase in the fluorescent static ratio. Compounds were applied to cells (20 μL, 2×) using the automated system of the FDSS at 2 seconds into the protocol and the data were collected at 1 Hz. At 143 s, 10 μL of an EC20 concentration of the muscarinic receptor agonist acetylcholine was added (5×), followed by the addition of 12 μL of an EC80 concentration of acetylcholine at the 268 s time point (5×). Agonist activity was analyzed as a concentration-dependent increase in calcium mobilization upon compound addition. Positive allosteric modulator activity was analyzed as a concentration-dependent increase in the EC20 acetylcholine response. Antagonist activity was analyzed as a concentration-dependent decrease in the EC80 acetylcholine response; for the purposes of the tables herein, an IC50 (inhibitory concentration 50) was calculated as a concentration-dependent decrease of the response elicited by an EC80 concentration of acetylcholine. Concentration-response curves were generated using a four-parameter logistical equation in XLFit curve fitting software (IDBS, Bridgewater, N.J.) for Excel (Microsoft, Redmond, Wash.) or Prism (GraphPad Software, Inc., San Diego, Calif.) or the Dotmatics software platform (Dotmatics, Bishop's Stortford, UK).
Compounds were synthesized as described above. Activity (IC50 and Emin) was determined in the mAChR M4 cell-based functional assay as described above and the data are shown in Table 2.

SMILES	remaining activity at 30 µM	IC50
[2H]C([2H])(C1CCOCC1)N1C[C@H]2C[C@H](Nc3cc(C(F)F)c(-c4cc(F)ccc4C)nn3)C[C@H]2C1 [compound 32, (3aR,5s,6aS)-N-(5-(difluoromethyl)-6-(5-fluoro-2-methylphenyl)pyridazin-3-yl)-2-((tetrahydro-2H-pyran-4-yl)methyl-d2)octahydrocyclopenta[c]pyrrol-5-amine]	3%	2.76 nM
[2H]C([2H])(C1CCOCC1)N1C[C@H]2C[C@H](Nc3nnc(-c4cc(F)cc(F)c4F)cc3C3CC3(F)F)C[C@H]2C1 (stereo partly drawn) [compound 33, (3aR,5s,6aS)-N-(4-(2,2-difluorocyclopropyl)-6-(2,3,5-trifluorophenyl)pyridazin-3-yl)-2-((tetrahydro-2H-pyran-4-yl)methyl-d2)octahydrocyclopenta[c]pyrrol-5-amine]	3%	6.4 nM
[2H]C([2H])(C1CCOCC1)N1C[C@H]2C[C@H](Nc3nnc(-c4cc(F)cc(F)c4F)cc3C3CC3)C[C@H]2C1 [compound 34, (3aR,5s,6aS)-N-(4-cyclopropyl-6-(2,3,5-trifluorophenyl)pyridazin-3-yl)-2-((tetrahydro-2H-pyran-4-yl)methyl-d2)octahydrocyclopenta[c]pyrrol-5-amine]	2%	5.05 nM
Cc1cc(N[C@H]2C[C@@H]3CN(CC4CCOCC4)C[C@@H]3C2)nnc1-c1cc(F)cc(F)c1F [compound 35, (3aR,5s,6aS)-N-(5-methyl-6-(2,3,5-trifluorophenyl)pyridazin-3-yl)-2-((tetrahydro-2H-pyran-4-yl)methyl)octahydrocyclopenta[c]pyrrol-5-amine]	3%	0.5 nM
[2H]C([2H])(C1CCOCC1)N1C[C@H]2C[C@H](Nc3nnc(-c4cc(F)cc(F)c4F)cc3C(C)(C)C)C[C@H]2C1 [compound 36, (3aR,5s,6aS)-N-(4-(tert-butyl)-6-(2,3,5-trifluorophenyl)pyridazin-3-yl)-2-((tetrahydro-2H-pyran-4-yl)methyl-d2)octahydrocyclopenta[c]pyrrol-5-amine]	4%	1030 nM
[2H]C([2H])(C1CCOCC1)N1C[C@H]2C[C@H](Nc3cc(C)c(-c4cc(F)cc(F)c4F)nn3)C[C@H]2C1 [compound 37, (3aR,5s,6aS)-N-(5-methyl-6-(2,3,5-trifluorophenyl)pyridazin-3-yl)-2-((tetrahydro-2H-pyran-4-yl)methyl-d2)octahydrocyclopenta[c]pyrrol-5-amine]	3%	0.69 nM
[2H]C([2H])(C1CCOCC1)N1C[C@H]2C[C@H](Nc3cc(C4(C(F)(F)F)CC4)c(-c4cc(F)c(F)cc4F)nn3)C[C@H]2C1 [compound 38, (3aR,5s,6aS)-2-((tetrahydro-2H-pyran-4-yl)methyl-d2)-N-(5-(1-(trifluoromethyl)cyclopropyl)-6-(2,4,5-trifluorophenyl)pyridazin-3-yl)octahydrocyclopenta[c]pyrrol-5-amine]	3%	46.3 nM
[2H]C([2H])(C1CCOCC1)N1C[C@H]2C[C@H](Nc3cc(C4(C(F)(F)F)CC4)c(-c4cc(F)cc(F)c4F)nn3)C[C@H]2C1 [compound 39, (3aR,5s,6aS)-2-((tetrahydro-2H-pyran-4-yl)methyl-d2)-N-(5-(1-(trifluoromethyl)cyclopropyl)-6-(2,3,5-trifluorophenyl)pyridazin-3-yl)octahydrocyclopenta[c]pyrrol-5-amine]	3%	17.9 nM
[2H]C([2H])(C1CCOCC1)N1C[C@H]2C[C@H](Nc3cc(C(F)F)c(-c4cc(F)cc(F)c4F)nn3)C[C@H]2C1 [compound 40, (3aR,5s,6aS)-N-(5-(difluoromethyl)-6-(2,3,5-trifluorophenyl)pyridazin-3-yl)-2-((tetrahydro-2H-pyran-4-yl)methyl-d2)octahydrocyclopenta[c]pyrrol-5-amine]	3%	1.37 nM
Fc1cc(F)c(F)c(-c2nnc(N[C@H]3C[C@@H]4CN(CC5CCOCC5)C[C@@H]4C3)cc2C(F)F)c1 [compound 41, (3aR,5s,6aS)-N-(5-(difluoromethyl)-6-(2,3,5-trifluorophenyl)pyridazin-3-yl)-2-((tetrahydro-2H-pyran-4-yl)methyl)octahydrocyclopenta[c]pyrrol-5-amine]	3%	0.33 nM
COc1ccc(F)cc1-c1nnc(N[C@H]2C[C@@H]3CN(CC4CCOCC4)C[C@@H]3C2)cc1C(F)F [compound 42, (3aR,5s,6aS)-N-(5-(difluoromethyl)-6-(5-fluoro-2-methoxyphenyl)pyridazin-3-yl)-2-((tetrahydro-2H-pyran-4-yl)methyl)octahydrocyclopenta[c]pyrrol-5-amine]	2%	0.67 nM
Cc1ccc(F)cc1-c1nnc(N[C@H]2C[C@@H]3CN(CC4CCOCC4)C[C@@H]3C2)cc1C(F)F [compound 43, (3aR,5s,6aS)-N-(5-(difluoromethyl)-6-(5-fluoro-2-methylphenyl)pyridazin-3-yl)-2-((tetrahydro-2H-pyran-4-yl)methyl)octahydrocyclopenta[c]pyrrol-5-amine]	2%	0.57 nM
Fc1ccc(Cl)c(-c2nnc(N[C@H]3C[C@@H]4CN(CC5CCOCC5)C[C@@H]4C3)cc2C(F)F)c1 [compound 44, (3aR,5s,6aS)-N-(6-(2-chloro-5-fluorophenyl)-5-(difluoromethyl)pyridazin-3-yl)-2-((tetrahydro-2H-pyran-4-yl)methyl)octahydrocyclopenta[c]pyrrol-5-amine]	2%	0.65 nM
[2H]C([2H])(C1CCOCC1)N1C[C@H]2C[C@H](Nc3nnc(-c4cc(F)cc(F)c4F)cc3C(C)(F)F)C[C@H]2C1 [compound 45, (3aR,5s,6aS)-N-(4-(1,1-difluoroethyl)-6-(2,3,5-trifluorophenyl)pyridazin-3-yl)-2-((tetrahydro-2H-pyran-4-yl)methyl-d2)octahydrocyclopenta[c]pyrrol-5-amine]	3%	54.4 nM
CC(c1ccccn1)N1C[C@H]2C[C@H](Nc3cc(C(F)F)c(-c4cc(F)cc(F)c4F)nn3)C[C@H]2C1 (stereo partly drawn) [compound 50, (3aR,5s,6aS)-N-(5-(difluoromethyl)-6-(2,3,5-trifluorophenyl)pyridazin-3-yl)-2-(1-(pyridin-2-yl)ethyl)octahydrocyclopenta[c]pyrrol-5-amine]	2%	34.8 nM
[2H]C(C)(c1ccccn1)N1C[C@H]2C[C@H](Nc3cc(C(F)F)c(-c4cc(F)cc(F)c4F)nn3)C[C@H]2C1 (stereo partly drawn) [compound 51, (3aR,5s,6aS)-N-(5-(difluoromethyl)-6-(2,3,5-trifluorophenyl)pyridazin-3-yl)-2-(1-(pyridin-2-yl)ethyl-1-d)octahydrocyclopenta[c]pyrrol-5-amine]	2%	35 nM
